US20030203975A1, “Anti-cancer agents” (priority 1998, published 2003)
Counter-ions that a name gives are not always drawn.

System: not given
Assay: not given
Conditions: not given

| melting point [°C] | Compound |
| --- | --- |
| 124 | CC(C)(C)OC(=O)NCC(=O)OCCCNc1ccc(O)c2c1C(=O)c1ccccc1C2=O |
| 152 | CC(C)(C)OC(=O)NCC(=O)OCCCNc1ccc(O)c2c1C(=O)c1c(O)cccc1C2=O |
| 60 | C[C@H](NC(=O)OC(C)(C)C)C(=O)OCCCNc1cccc2c1C(=O)c1ccccc1C2=O |
| 58 | C[C@@H](NC(=O)OC(C)(C)C)C(=O)OCCCNc1cccc2c1C(=O)c1ccccc1C2=O |
| 121 | CC(C)(C)OC(=O)N1CCC[C@H]1C(=O)OCCCNc1cccc2c1C(=O)c1ccccc1C2=O |
| 58 | CC[C@H](NC(=O)OC(C)(C)C)C(=O)OCCCCNc1cccc2c1C(=O)c1ccccc1C2=O |

System: MAC 15A adenocarcinoma of the colon
Assay: In vitro chemosensitivity against MAC 15A adenocarcinoma (MTT assay)
Type: cell-based
Conditions: 96 hours continuous exposure
Protocol: In Vitro Activity Against MAC 15A Adenocarcinoma.
MAC 15A cells were grown in RPMI 1640 medium supplemented with 10% foetal calf serum containing a 1% antibiotic mixture under standard tissue culture conditions and were maintained at 37° C. in a humidified atmosphere of 5% CO2 in air. Cells were harvested from a stock culture in exponential growth phase and plated in 96-well flat-bottomed plates to achieve a final density of 2×10^3 cells per well. After 2 hours incubation medium was replaced with either fresh medium containing 0.5% DMSO (control) or medium containing test compound dissolved in DMSO at a concentrations from 10 mM to 1 nM. Chemosensitivity was assessed using MTT assay by the method of Plumb et al Cancer Research 49 (1989) 4435-4440.
Following 96 hours continuous exposure to drug at 37° C. cells were incubated with fresh drug-free medium immediately prior to addition of MTT solution (5 mg/ml). Medium and MTT were removed after 4 hours and 150 μl of DMSO was added. For each plate the absorbance of the resulting solution was measured at the analytical wavelength 550 nm for formazan product, using a Labsystem Mutiskan. IC50 values were obtained from growth curves of drug concentration against % survival and are expressed in μm.

| Compound | IC50 [µM] |
| --- | --- |
| N[C@@H](CCCNC(=O)OCc1ccccc1)C(=O)OCCCNc1cccc2c1C(=O)c1ccccc1C2=O [Example 71, 1-[3-(N-δ-benzyloxycarbonyl-L-ornithyloxy)propylaminol]anthracene-9,10-dione trifluoroacetate] | 2.4 |
| CC(C)(COC(=O)CN)Nc1cccc2c1C(=O)c1ccccc1C2=O [Example 97, 2-[(9,10-dioxoanthryl)amino]-2-methylpropyl 2-aminoacetate trifluoro-acetate] | 15 |
| C[C@H](N)C(=O)OCC(C)(C)Nc1cccc2c1C(=O)c1ccccc1C2=O [Example 99, 2-[(9,10-dioxoanthryl)amino]-2-methylpropyl (2S)-2-amino propanoate trifluoroacetate] | 35 |
| C[C@H](N)C(=O)OCCc1ccc(Nc2cccc3c2C(=O)c2ccccc2C3=O)cc1 [Example 103] | 4.7 |
| C[C@@H](N)C(=O)OCCc1ccc(Nc2cccc3c2C(=O)c2ccccc2C3=O)cc1 [Example 105] | 3.4 |
| NCC(=O)OCCN1CCN(c2cccc3c2C(=O)c2ccccc2C3=O)CC1 [Example 107, 2-[4-(9,10-dioxoanthryl)piperazinyl]ethyl 2-aminoacetate bis-trifluoroacetate] | 24 |
| C[C@H](N)C(=O)OC1CCN(c2cccc3c2C(=O)c2ccccc2C3=O)CC1 [Example 117, 1-(9,10-dioxoanthryl)-4-piperidyl-(2S)-2-aminopropanoate trifluoro-acetate] | 14 |
| C[C@H](N)C(=O)OC[C@@H]1CCCN1c1cccc2c1C(=O)c1ccccc1C2=O [Example 121, [(2S)-1-(9,10-dioxoanthryl)pyrrolidin-2-yl]methyl (2S)-2-amino-propanoate trifluoroacetate] | 22 |
| NCC(=O)N1CCC[C@H]1C(=O)OC[C@H](Cc1ccccc1)Nc1ccc(O)c2c1C(=O)c1c(O)cccc1C2=O [Example 135, (2S)-2-[(4,8-dihydroxy-9,10-dioxoanthryl)amino]-3-phenylpropyl (2S) -1-(2-aminoacetyl)pyrrolidine-2-carboxylate trifluoroacetate] | 2.5 |
| (2S)-2-[(9,10-dioxoanthryl)amino]propyl (2S)-2-propanoate trifluoroacetate [Example 119] | 5.5 |

Same assay, conditions: Mus musculus, MAC15A, 96 h, 96 hours continuous exposure

| Compound | IC50 [µM] |
| --- | --- |
| CC(C)[C@H](N)C(=O)OCCCNc1ccc(O)c2c1C(=O)c1ccccc1C2=O [Example 51, 4-hydroxy-1-[3-(L-valyloxy)propylamino]anthracene-9,10-dione tri-fluoroacetate] | 4.9 |
| COc1ccc(C[C@H](N)C(=O)OCCCNc2cccc3c2C(=O)c2ccccc2C3=O)cc1 [Example 79, 1-[3-(O-methyl-L-tyrosyloxy)propylamino]anthracene-9,10dione tri-fluoroacetate] | 3.5 |
| C[C@H](N)C(=O)OCCOCCNc1cccc2c1C(=O)c1ccccc1C2=O [Example 109, 1-[2-(2-{L-alanyloxy}ethoxy)ethylamino]anthracene-9,10-dione tri-fluoroacetate] | 11.5 |
| C[C@@H](N)C(=O)OCCOCCNc1cccc2c1C(=O)c1ccccc1C2=O [Example 111, 1-[2-(2-{D-alanyloxy}ethoxy)ethylamino]anthracene-9,10-dione tri-fluoroacetate] | 24 |

Same assay, conditions: Mus musculus, MAC15A, 96 hours continuous exposure

| IC50 [µM] | Compound |
| --- | --- |
| 7.5 | C[C@H](N)C(=O)OCCNc1cccc2c1C(=O)c1ccccc1C2=O [Example 23, 1-[2-(L-alanyloxy)ethylamino]anthracene-9,10-dione trifluoroacetate] |
| 30 | CC(C)[C@H](N)C(=O)OCCNc1cccc2c1C(=O)c1ccccc1C2=O [Example 25, 1-[2-(L-valyloxy)ethylamino]anthracene-9,10-dione trifluoroacetate] |
| 14 | CC(C)[C@@H](N)C(=O)OCCNc1cccc2c1C(=O)c1ccccc1C2=O [Example 27, 1-[2-(D-valyloxy)ethylamino]anthracene-9,10-dione trifluoroacetate] |
| 3 | N[C@@H](Cc1ccccc1)C(=O)OCCCNc1cccc2c1C(=O)c1ccccc1C2=O [Example 39, 1-[3-(L-phenylalanyloxy)propylamino]anthracene-9,10-dione trifluoro-acetate] |
| 5 | N[C@H](C(=O)OCCCNc1cccc2c1C(=O)c1ccccc1C2=O)c1ccccc1 [Example 73, 1-[3-(L-phenylglycyloxy)propylamino]anthracene-9,10dione trifluoro-acetate] |
| 4.2 | N[C@@H](C(=O)OCCCNc1cccc2c1C(=O)c1ccccc1C2=O)c1ccccc1 [Example 75, 1-[3-(D-phenylglycyloxy)propylamino]anthracene-9, 10dione trifluoro-acetate] |
| 9.4 | NCC(=O)OCCCCNc1cccc2c1C(=O)c1ccccc1C2=O [Example 81, 1-[4-(glycyloxy)butylamino]anthracene-9,10-dione trifluoroacetate] |
| 4.5 | CCCC(=O)OCCCCNc1cccc2c1C(=O)c1ccccc1C2=O [Example 89, 1-[4-(butanoyloxy)butylamino]anthracene-9,10-dione trifluoroacetate] |
| 7 | N[C@@H](Cc1ccccc1)C(=O)OCCOCCNc1cccc2c1C(=O)c1ccccc1C2=O [Example 113, 1-[2-(2-{L-phenylalanyloxy}ethoxy)ethylamino]anthracene-9,10-dione trifluoroacetate] |
| 12 | N[C@H](Cc1ccccc1)C(=O)OCCOCCNc1cccc2c1C(=O)c1ccccc1C2=O [Example 115, 1-{2-(2-[D-phenylalanyloxy]ethoxy)ethylamino}anthracene-9,10-dione trifluoroacetate] |
| 4 | NCC(=O)NCC(=O)OCCCNc1cccc2c1C(=O)c1ccccc1C2=O [Example 129, 1-[3-(glycylglycyloxy)propylamino]anthracene-9,10-dione trifluoro-acetate] |

| Compound | IC50 [µM] |
| --- | --- |
| N[C@@H](Cc1c[nH]c2ccccc12)C(=O)OCCCCCONc1cccc2c1C(=O)c1ccccc1C2=O [Example 77, 1-[5-(L-tryptophyloxy)pentoxyamino]anthracene-9,10-dione trifluoro-acetate] | 5.5 |
| CN[C@@H](C)C(=O)OCCCCNc1cccc2c1C(=O)c1ccccc1C2=O [Example 85, 1-[4-(methylalanyloxy)butylamino]anthracene-9,10-dione trifluoro-acetate] | 3.2 |
| C[C@H](N)C(=O)OCCCCCNc1cccc2c1C(=O)c1ccccc1C2=O [Example 93, 1-[5-(L-alanyloxy)pentylamino]anthracene-9,10-dione trifluoroacetate] | 3.5 |
| C[C@@H](N)C(=O)OCCCCCNc1cccc2c1C(=O)c1ccccc1C2=O [Example 95, 1-[5-(D-alanyloxy)pentylamino]anthracene-9,10-dione trifluoroacetate] | 3.1 |
